Like-named read-outs stand apart in the source and are kept apart here.
Legend:
[1] = mouse, in vivo; for Ratios of the concentration of porphyrins in liver to kidney / Ratios of the concentration of porphyrins in tumor to muscle: iv
Experimental: Measured concentrations are averages for two mice.
Biodistribution (liver, kidney, muscle and tumor) of the four manganese porphyrins was measured by absorption spectroscopy of ammonia/methanol mixtures and expressed as μg metalloporphyrin per gram of tissue (wet weight). Quantitation was based upon the extinction coefficient for each porphyrin as predetermined in the extraction solutions.
SMT-F (spontaneous mammary carcinoma) was maintained in the laboratory on a biweekly schedule in which 1 mm^3 pieces of tumor were implanted in the flank of DBA/2HaRos-d^+Ha mice. Porphyrins were delivered by intravenous injection in the tail vein.
The distribution of each porphyrin in kidney, liver, muscle and tumor was determined at 1 and 24 hours post injection.

L1210 cells = tested on: L1210 cells; design: unit not given beside the values; settings: mouse, 48 h
[2] = tested on: SMT-F (spontaneous mammary carcinoma); experiment: Relaxivity in excised tumor tissue at 10.7 MHz; format: in vivo, DBA/2HaRos-d^+Ha mice; settings: 24 hours post injection; for Relaxivity of tumors excised from mice (relaxation rate of treated minus untreated tissue divided by porphyrin concentration in tumor tissue): 100 mg/kg, 10.7 MHz, 37° C.
Experimental: Relaxation and biodistribution measurements were carried out using procedures known to those skilled in the art, e.g., Fiel et. al., supra. Briefly, the longitudinal relaxation time (T1) for excised tissue was measured at 37° C., with a Praxis II™ relaxometer (Praxis Corporation, San Antonio, Tex.) operating at 10.7 MHz and employing a saturation recovery pulse sequence.
Relaxivity in tumor tissue was measured for each porphyrin on excised tissue at 10.7 MHz, 24 hours post injection of a 100 mg/kg dose (table 3).
*Expressed as the relaxation rate of tissue from treated animals (24 hrs)
minus the relaxation rate of tissue from untreated animal (control)
divided by the concentration of porphyrin in the tumor tissue.

[3] = tested on: SMT-F (spontaneous mammary carcinoma); experiment: Magnetic resonance imaging of tumor bearing mouse, signal intensity; format: in vivo, DBA/2HaRos-d^+Ha mice; settings: for tumor appearance in MR image / kidney signal in MR image / Normalized Signal Intensity, confidence interval / Normalized Signal Intensity, range / Normalized Signal Intensity, mean ± SD: 100 mg/kg; for kidney signal in MR image: region of the pelvis; for Normalized Signal Intensity, confidence interval: 99% (t test); for Normalized Signal Intensity, range: control 0.652-0.701; for Normalized Signal Intensity, mean ± SD: control 0.685 ± .015
Experimental: Control (upper left), 1 hour post injection (100 mg/kg) of Mn(III)TPPS3 (upper right), and 24 hours post injection (lower left). […] Image intensity working standards (top to bottom) 28 mM CuSO4 in 1N HCl, 5 mM GdDTPA in isotonic saline and baby oil.
Magnetic resonance images were made using a custom-built small animal (mouse) transmitter/receiving coil similar to the design of Henkelman et al., Small Animal Imaging With A Clinical Imager. Magn. Reson. Med. 4:61-66; 1987, and tuned to 15 MHz for use with a Diasonics™ 0.35 Tesla clinical scanner. Images were made using a TR of 500 msec. and a TE of 50 msec. with a slice thickness of 2.5 mm.
Images were analyzed using a Hewlett Packard Vectra™ ES/12 personal computer with high resolution VGA graphics after digitization via a Dage 70™ camera with Vidicon tube utilizing a Matrox™ MVP AT image capture/display board. Signal intensity measurements were made from selected areas of interest (AOI) using Image-Pro II™ software (Media Cybernetics, Silver Spring, MD). Any suitable similar apparatus and software can of course be used. Generally an entire section (image slice) of tumor was circumscribed using a free-form area of interest option. The area of interest was then represented by a histogram relating pixel frequency to gray level. Each gray level (0-255) was multiplied by its associated frequency. The resulting products were summed and divided by the area of interest in units of centimeter squared. The procedure was repeated three times to determine a mean value for the tumor at each time period. The same procedure was carried out for the midrange working standard (5 mM Gd DTPA).
The visual differences (intensity) noted between control and treated (FIG. 2) were quantitated using mean intensity values normalized to corresponding working standards. The results (table 4) indicate that differences between control and enhanced and between one and 24 hrs are significant. Signal intensity measured at 24 hrs is 21% higher than control and 7% higher than the value determined at 1 hr. Note that this analysis ignores the fact that the increase in intensity at 24 hrs is actually concentrated into a relatively small area of the tumor by averaging over the entire section.

[4] = Hydrophobicity of the porphyrins; format: physicochemical; settings: rank within the series of four

O=S(=O)([O-])c1ccc(-c2c3nc(c(-c4ccc(S(=O)(=O)[O-])cc4)c4ccc([nH]4)c(-c4ccc(S(=O)(=O)[O-])cc4)c4nc(c(-c5ccccc5)c5ccc2[nH]5)C=C4)C=C3)cc1.[Mn+3] [MnTPPS3, manganese III meso-[tri(4-sulfonatophenyl)phenyl]porphine]
concentration in kidney [1]: high concentration found in the kidney at 1 hour
kidney clearance [1]: cleared rapidly and concentrated in the urine
Ratios of the concentration of porphyrins in liver to kidney ([1]; 60 min): 0.7
Ratios of the concentration of porphyrins in tumor to muscle ([1]; 60 min): 3.2
Ratios of the concentration of porphyrins in liver to kidney ([1]; 1440 min): 1.8
LD50 for L1210 cells in culture at day 2 (L1210 cells): 1010
tumor uptake, tumor/muscle ratio and relaxivity in tumor tissue, overall ranking [2]: superior to all others in regard to tumor uptake, tumor/muscle ratio and relaxivity in tumor tissue
tumor appearance in MR image ([3]; 1 hour post injection): the tumor appears somewhat brighter than the control, although it remains homogeneous
kidney signal in MR image ([3]; 1 hour post injection): high intensity signal in the region of the pelvis
kidney signal in MR image ([3]; 1 hour post injection, listed as Mn(III)TPPS3, 100 mg/kg): concentration of porphyrin in kidneys at 1 hour
Normalized Signal Intensity, confidence interval ([3]; 1 hr post injection, tumor): 0.769-0.784
Normalized Signal Intensity, range ([3]; 1 hr post injection, tumor): 0.766-0.780
Normalized Signal Intensity, mean ± SD ([3]; 1 hr post injection, tumor): 0.774 ± .006
tumor appearance in MR image ([3]; 24 hours post injection): the tumor appears very heterogeneous
tumor appearance in MR image ([3]; 24 hours post injection, listed as Mn(III)TPPS3, 100 mg/kg): heterogeneous signal enhancement in tumor at 24 hours
Normalized Signal Intensity, confidence interval ([3]; 24 hrs post injection, tumor): 0.815-0.841
Normalized Signal Intensity, range ([3]; 24 hrs post injection, tumor): 0.820-0.836
Normalized Signal Intensity, mean ± SD ([3]; 24 hrs post injection, tumor): 0.828 ± .007
Signal intensity increase over the value at 1 hr ([3]; 24 hrs vs 1 hr, tumor): 7%
Signal intensity increase over control ([3]; 24 hrs vs control, tumor): 21%

O=S(=O)([O-])c1ccc(-c2c3nc(c(-c4ccc(S(=O)(=O)[O-])cc4)c4ccc([n-]4)c(-c4ccc(S(=O)(=O)[O-])cc4)c4ccc([n-]4)c(-c4ccc(S(=O)(=O)[O-])cc4)c4nc2C=C4)C=C3)cc1.[Mn+3] [MnTPPS4, manganese III meso-tetra(4-sulfonatophenyl)porphine, reference compound]
Ratios of the concentration of porphyrins in liver to kidney ([1]; 60 min): 0.3
Ratios of the concentration of porphyrins in liver to kidney ([1]; 1440 min): 0.3
hydrophobicity [4]: the least hydrophobic porphyrin
Relaxivity of tumors excised from mice (relaxation rate of treated minus untreated tissue divided by porphyrin concentration in tumor tissue) [2]: 0.207 ± .004

manganese III meso-[cis-di(4-sulfonatophenyl)diphenyl]porphine [MnTPPS2(cis)]
Ratios of the concentration of porphyrins in liver to kidney ([1]; 60 min): 6.4
Ratios of the concentration of porphyrins in tumor to muscle ([1]; 60 min): 2.8
Ratios of the concentration of porphyrins in liver to kidney ([1]; 1440 min): 5.5
Ratios of the concentration of porphyrins in tumor to muscle ([1]; 1440 min): 9.7
Relaxivity of tumors excised from mice (relaxation rate of treated minus untreated tissue divided by porphyrin concentration in tumor tissue) ([2]; measurement from one mouse): 0.361
tumor uptake, tumor/muscle ratio and relaxivity in tumor tissue, overall ranking [2]: superior to MnTPPS4

manganese III meso-[trans-di(4-sulfonato-phenyl)diphenyl]porphine [MnTPPS2(trans)]
Ratios of the concentration of porphyrins in liver to kidney ([1]; 60 min): 4.4
Ratios of the concentration of porphyrins in tumor to muscle ([1]; 60 min): 2.3
Ratios of the concentration of porphyrins in liver to kidney ([1]; 1440 min): 3.8
Ratios of the concentration of porphyrins in tumor to muscle ([1]; 1440 min): 11.6
Relaxivity of tumors excised from mice (relaxation rate of treated minus untreated tissue divided by porphyrin concentration in tumor tissue) [2]: 0.296 ± .045
tumor uptake, tumor/muscle ratio and relaxivity in tumor tissue, overall ranking [2]: superior to MnTPPS4
